This test has as its system 521955-158-R2-J5-PDC complex spheroid viability. The experiment in a line: Anticancer human tumor 521955-158-R2-J5-PDC patient-derived pancreatic carcinoma cell line growth inhibition [GQUAD]. The settings on record: for viability, T/C: stronger effect = lower value. Put shortly:
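Tumor cells were grown as complex spheroids with HUVEC endothelial cells and mesenchymal stem cells as stroma. G-quadruplex stabilizers were combined with targeted agents over half-log dilutions from near the clinical Cmax, or from 10 microM.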

Several values for one entry are separate records, joined by “and”; a condition that tells them apart may be missing. Equal values may be shown once.

The values that follow come from PubChem BioAssay AID2060495 (Molecular Pharmacology Branch, DTP, NCI, 2025).
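Further: spheroids exposed to agents for one week before reading.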
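Wherever viability, T/C is given: 100% = DMSO vehicle control viability.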

As to `Nc1ccn(C2OC(CO)C(O)C2(F)F)c(=O)n1` (stereo unspecified), the viability, T/C by setting is: (compound 0.0316 µM) 95.8% and 80% and 84.4%; (compound 0.1 µM) 86% and 65.7% and 69.4%; (compound 0.316 µM) 75.9% and 57.5% and 71%; (compound 1 µM) 17% and 46.2% and 22.6%; (compound 3.16 µM) 9.14% and 18.9% and 7.37%; (compound 10 µM) 8.29% and 13.5% and 6.71%. For the setting “curve of compound”, the IC50 was 0.524 µM and 0.534 µM and 0.518 µM.
For the molecule `C=CCn1c(=O)c2cnc(Nc3ccc(N4CCN(C)CC4)cc3)nc2n1-c1cccc(C(C)(C)O)n1`, the viability, T/C is, setting by setting: (compound 0.0316 µM) 101% and 115% and 102%; (compound 0.1 µM) 70.8% and 67% and 66.1%; (compound 0.316 µM) 30.4% and 29.3% and 16%; (compound 1 µM) 17.9% and 15.7% and 7.78%; (compound 3.16 µM) 12.2% and 13.9% and 7.48%; (compound 10 µM) 16.8% and 14.4% and 6.61%. In addition, the IC50 (curve of compound) was 0.181 µM and 0.167 µM and 0.145 µM.
For the molecule `CC(C)(O)C1CCC(Nc2ccc3ncc(-c4cccc(C(F)(F)F)c4)n3n2)CC1` (stereo unspecified) + Cc1[nH]c2ccc(F)cc2c1-c1nc2c3cccnc3c3ncccc3c2[nH]1, the concentration for half-maximal inhibition (IC50) is 2.05 µM (curve of first compound, second compound 0.0316 µM); 1.99 µM (curve of first compound, second compound 0.1 µM); 2.01 µM (curve of first compound, second compound 0.316 µM); 1.96 µM (curve of first compound, second compound 1 µM); 1.93 µM (curve of first compound, second compound 3.16 µM); 1.89 µM (curve of first compound, second compound 10 µM). Also, the viability, T/C was 93.5% (second compound 0.0316 µM, first compound 0.0316 µM); 109% (second compound 0.0316 µM, first compound 0.1 µM); 101% (second compound 0.0316 µM, first compound 0.316 µM); 125% (second compound 0.0316 µM, first compound 1 µM); 15.5% (second compound 0.0316 µM, first compound 3.16 µM); 10.8% (second compound 0.0316 µM, first compound 10 µM). For the same molecule, the viability, T/C is 102% (second compound 0.1 µM, first compound 0.0316 µM); 107% (second compound 0.1 µM, first compound 0.1 µM); 103% (second compound 0.1 µM, first compound 0.316 µM); 117% (second compound 0.1 µM, first compound 1 µM); 11.3% (second compound 0.1 µM, first compound 3.16 µM); 11.7% (second compound 0.1 µM, first compound 10 µM). Also, the viability, T/C was 107% (second compound 0.316 µM, first compound 0.0316 µM); 100% (second compound 0.316 µM, first compound 0.1 µM); 102% (second compound 0.316 µM, first compound 0.316 µM); 116% (second compound 0.316 µM, first compound 1 µM); 12.6% (second compound 0.316 µM, first compound 3.16 µM); 14.7% (second compound 0.316 µM, first compound 10 µM). Moreover, the viability, T/C by setting is: (second compound 1 µM, first compound 0.0316 µM) 95.8%; (second compound 1 µM, first compound 0.1 µM) 94.3%; (second compound 1 µM, first compound 0.316 µM) 102%; (second compound 1 µM, first compound 1 µM) 121%; (second compound 1 µM, first compound 3.16 µM) 11.7%; (second compound 1 µM, first compound 10 µM) 11.9%. For the same molecule, the viability, T/C was 91.2% (second compound 3.16 µM, first compound 0.0316 µM); 79.3% (second compound 3.16 µM, first compound 0.1 µM); 92.9% (second compound 3.16 µM, first compound 0.316 µM); 113% (second compound 3.16 µM, first compound 1 µM); 16.5% (second compound 3.16 µM, first compound 3.16 µM); 10.7% (second compound 3.16 µM, first compound 10 µM). For the same molecule, the viability, T/C was 83.2% (second compound 10 µM, first compound 0.0316 µM); 87.8% (second compound 10 µM, first compound 0.1 µM); 102% (second compound 10 µM, first compound 0.316 µM); 126% (second compound 10 µM, first compound 1 µM); 9.89% (second compound 10 µM, first compound 3.16 µM); 9.4% (second compound 10 µM, first compound 10 µM).

One may read the viability, T/C as the result in the treated group divided by that in the control group, in per cent. Broadly, the IC50 is the point on the concentration scale where inhibition reaches its midpoint.
